These results are taken from patent US20070189970A1, “Contrast medium for thrombus formation” (Astellas Pharma Inc., priority 2004, published 2007).

Where a name gives a salt, the structure may show the parent alone.

One data set concerns the target T1, resting GPIIb/IIIa (Homo sapiens, UniProt P05106+P08514).
T1 construct: Platelet rich plasma (PRP) was prepared by centrifugation of whole blood; endogenous in cells; host or cells: washed platelets from venous blood, kept resting with 1 μM PGE1
Nature of the data set: Test 2: suppression activity of fibrinogen adhesion of prostaglandin E1 (PGE1)-treated platelet. The data set is classed as cell-based. Particulars: for IC50: washed PGE1 (1 μM)-treated platelets, plates coated with human fibrinogen 1 μg/well, 37° C. 30 min, read-out: R Suppression of fibrinogen adhesion IC50. As for the experimental part:
Test 2: Measurement of Suppression Activity of Fibrinogen Adhesion of Prostaglandin E1 (PGE 1)-treated Platelet
Venous blood was collected onto sodium citrate. Platelet rich plasma (PRP) was prepared by centrifugation of whole blood. Platelets were washed with modified HEPES-Tyrode's buffer (129 mM NaCl, 2.8 mM KCl, 0.8 mM KH2PO4, 8.9 mM NaHCO3, 0.8 mM MgCl2, 10 mM HEPES, 5.5 mM Glucose, 0.1% BSA,.pH 7.4) containing 1μM PGE1. After washing, platelets were suspended in modified HEPES-Tyrode's buffer containing 1.0 mM CaCl2 and 1 μM PGE1 and the number of platelet was adjusted.
Adhesion assay was carried out as follows. 96-well microtiter plates were coated with 1 μg/well of human fibrinogen. The plates were then blocked with 1% BSA. After washing the plates with the buffer, the washed platelets were added to each well in the presence of the test compound or buffer and incubated at 37° C. for 30 min. The plates were then washed three times with buffer. The number of adhered cells was determined by measuring the acid phosphatase activity of cells using a microplate reader at 410 nm. Percent inhibition of adhesion in the sample treated with the test compound was calculated by comparison with the adhesion in absence of the test compound. The activity of the test compound was represented by a value of IC50, i.e. a dose required for the […] inhibition of the platelet adhesion.

A further data set deals with T2, active GPIIb/IIIa (Homo sapiens, UniProt P05106+P08514).
T2 construct: Platelet rich plasma (PRP) containing 3×10^8 platelets/ml was prepared from human blood; endogenous in cells
T2 sequence (P08514 32-887 limits assumed): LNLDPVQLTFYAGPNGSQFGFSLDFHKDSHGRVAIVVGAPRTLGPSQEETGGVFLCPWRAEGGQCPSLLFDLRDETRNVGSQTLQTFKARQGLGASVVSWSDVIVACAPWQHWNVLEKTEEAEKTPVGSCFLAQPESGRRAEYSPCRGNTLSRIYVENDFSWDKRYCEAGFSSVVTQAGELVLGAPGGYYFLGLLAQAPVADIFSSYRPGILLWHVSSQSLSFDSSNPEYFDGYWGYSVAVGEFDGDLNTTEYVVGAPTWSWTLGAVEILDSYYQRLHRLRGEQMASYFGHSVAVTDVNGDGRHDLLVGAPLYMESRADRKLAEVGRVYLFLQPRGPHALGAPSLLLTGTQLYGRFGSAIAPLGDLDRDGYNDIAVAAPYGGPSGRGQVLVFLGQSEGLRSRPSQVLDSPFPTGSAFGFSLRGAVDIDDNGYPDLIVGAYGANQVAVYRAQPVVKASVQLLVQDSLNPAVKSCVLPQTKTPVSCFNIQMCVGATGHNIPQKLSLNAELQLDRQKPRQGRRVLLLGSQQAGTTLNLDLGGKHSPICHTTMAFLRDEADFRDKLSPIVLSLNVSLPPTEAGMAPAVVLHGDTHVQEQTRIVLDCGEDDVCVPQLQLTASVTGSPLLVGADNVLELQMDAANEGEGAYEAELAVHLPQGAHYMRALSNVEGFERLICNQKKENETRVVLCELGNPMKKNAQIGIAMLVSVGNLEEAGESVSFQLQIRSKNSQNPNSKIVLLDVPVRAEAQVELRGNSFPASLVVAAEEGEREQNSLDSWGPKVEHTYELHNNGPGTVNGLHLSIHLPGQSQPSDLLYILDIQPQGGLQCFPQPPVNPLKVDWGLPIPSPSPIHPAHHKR
T2 sequence (P08514 891-1039 partner limits assumed): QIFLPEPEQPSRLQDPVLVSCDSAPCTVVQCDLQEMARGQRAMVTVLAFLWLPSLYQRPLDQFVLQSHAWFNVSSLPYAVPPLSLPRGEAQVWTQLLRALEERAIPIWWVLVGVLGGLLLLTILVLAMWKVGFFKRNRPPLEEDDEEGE
T2 sequence (P05106 27-788): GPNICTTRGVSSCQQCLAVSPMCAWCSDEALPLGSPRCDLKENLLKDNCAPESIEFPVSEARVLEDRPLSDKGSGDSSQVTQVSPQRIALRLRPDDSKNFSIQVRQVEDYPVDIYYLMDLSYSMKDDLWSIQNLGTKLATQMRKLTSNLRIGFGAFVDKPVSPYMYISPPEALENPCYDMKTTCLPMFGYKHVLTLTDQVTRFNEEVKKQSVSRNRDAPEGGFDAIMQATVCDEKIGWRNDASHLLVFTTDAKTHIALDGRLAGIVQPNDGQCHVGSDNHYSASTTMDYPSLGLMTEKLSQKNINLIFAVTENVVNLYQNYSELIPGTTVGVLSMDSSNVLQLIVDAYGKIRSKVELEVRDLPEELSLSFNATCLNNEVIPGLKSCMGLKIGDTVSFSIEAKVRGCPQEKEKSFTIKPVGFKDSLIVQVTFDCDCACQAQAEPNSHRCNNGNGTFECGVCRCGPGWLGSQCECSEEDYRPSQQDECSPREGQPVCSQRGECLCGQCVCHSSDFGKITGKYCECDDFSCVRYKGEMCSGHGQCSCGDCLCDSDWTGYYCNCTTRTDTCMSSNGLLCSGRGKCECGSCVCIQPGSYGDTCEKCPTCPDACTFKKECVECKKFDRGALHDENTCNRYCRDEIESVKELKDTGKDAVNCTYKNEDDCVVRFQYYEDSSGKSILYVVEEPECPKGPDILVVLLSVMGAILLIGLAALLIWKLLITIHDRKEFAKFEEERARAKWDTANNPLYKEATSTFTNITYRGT
Nature of the data set: Test 1: inhibitory activity of adenosine diphosphate (ADP)-induced platelet aggregation in platelet rich plasma. The data set is classed as cell-based. Particulars: for R/A ratio: IC50 (R) of Test 2 / IC50 (A) of Test 1, selective binding ability toward the active GPIIb/IIIa; for IC50: human PRP 3×10^8 platelets/ml, 37° C., read-out: A Inhibition of platelet aggregation IC50. As for the experimental part: Test 1: Measurement of Inhibitory Activity of Adenosine Diphosphate (ADP)-induced Platelet Aggregation
Platelet rich plasma (PRP) containing 3×10^8 platelets/ml was prepared from human blood. To 225 μl of PRP, 25 μl of a solution of the test compound was added and stirred at 37° C. for 2 min. To the solution, 5 μl of ADP (final concentration: 2.5 μM) was added as an aggregation inducing agent. Aggregation was measured with aggregometer (NBS HEMA-TRACER 801). The procedure was as follows. Light transmittance of PRP was calibrated to 100%. PRP was incubated in the aggregometer at 37° C. for 2 min. ADP was added […], and the change in light transmittance was monitored by PL500 recorder (Yokogawa, Japan). Percent inhibition of aggregation by the test compound was calculated by comparison with the aggregation in the absence of the test compound. The activity of an […] (test compound) is represented as a value of IC50, i.e., a dose required for the […] inhibition of the platelet aggregation.

A further data set has as its system monkey thrombus model. Nature of the data set: Accumulation of radioactivity at thrombus, blood and muscle in monkey thrombus model (PET, gamma counter). The data set is classed as in vivo, monkey (Macaca fasciculans). Particulars: 90 min after the administration. An excerpt: Kinetics of the labeled compounds in the body of monkey (Macaca fasciculans) was studied by using the contrast mediums labeled with [^11C] and [^18F] prepared in Production Examples 21 and 22, respectively.
According to the canine saphenous vein (which is formed with a confluence of dorsal digital veins of hallux and arcuate veins of foot, and ascends in front of a medial malleolus and behind of a medial condyle of femur, crosses a saphenous opening of patellar retinaculum and pour into a femoral vein over a femoral triangle) thrombosis model (Knight L. C. et al., Thromb Haemost., 1998, 80, p.845-851 and Lister-James L. et al., J. Nucl Med. 1996, 37, p.775-781), a platinum embolization coil (Boston Scientific Japan) was inserted and placed in the right femoral vein of the monkey while anesthetized and wound was sutured.
Three hours after the insertion of the coil, the contrast mediums prepared in Production Examples 21 and 22, respectively, were administered intravenously (740 MBq/2 ml-saline). Imaging was performed for 90 min with a high-resolution positron emission tomography (PET) scanner (SHR-7700, Hamamatsu Photonics K.K., Japan). After PET measurement, the coil was removed, and the right femoral vein was collected to obtain a thrombus sample. Thigh muscle was collected, and saphenous artery was punctured to collect an arterial blood sample. The thrombus, thigh muscle and arterial blood samples were weighed and their radioactivity was measured with gamma counter (1480 WIZARD, Wallac Oy, Finland).
Data was calculated as percent of injected dose ([…]).

Where [1] appears, read: listed as Production Example 21.

Usually IC50 stands for the concentration needed to halve the response being measured.

T1 sequence (P08514 32-887 limits assumed): as the sequence (P08514 32-887 limits assumed) above
T1 sequence (P08514 891-1039 partner limits assumed): as the sequence (P08514 891-1039 partner limits assumed) above
T1 sequence (P05106 27-788): as the sequence (P05106 27-788) above

On to `CN(CC(=O)c1ccc(OCC(=O)O)c(OCC(=O)O)c1)C(=O)/C=C/C1CCNCC1` [Ex. 1, 2,2′-{[4-([methyl[(2E)-3-(4-piperidinyl)-2-propenoyl]amino}acetyl)-1,2-phenylene]bis(oxy)]diacetic acid hydrochloride], for which the IC50 at resting GPIIb/IIIa was determined as 7900 nM; on active GPIIb/IIIa (ADP final concentration 2.5 μM) it was 135 nM. For the same compound, the R/A ratio at active GPIIb/IIIa is given as 59.

Turning to `CC(NCOc1ccc(C(=N)N)cc1)C(=O)N[C@@H](CC(=O)O)C(=O)N[C@@H](C(=O)N1CCS(=O)(=O)CC1)C(C)C` (stereo partly drawn) [Ex. 3], the IC50 on resting GPIIb/IIIa came out at 1350 nM; on active GPIIb/IIIa (ADP final concentration 2.5 μM), 73 nM. Also, the R/A ratio at active GPIIb/IIIa came to 18.

Regarding `N=C(N)c1ccc(OCC(=O)Nc2ccc(OCC(=O)O)c(C(=O)O)c2)cc1` [Ex. 4], the IC50 at resting GPIIb/IIIa came out at 1630 nM; on active GPIIb/IIIa (ADP final concentration 2.5 μM), 260 nM. For the same compound, the R/A ratio on active GPIIb/IIIa stood at 6.3.

`CC(=O)N[C@@H](CNC(=O)[C@@H]1CCCN(C(=O)/C=C/C2CCNCC2)C1)C(=O)O` [Ex. 6]: the 50% inhibitory concentration (IC50) amounted to 434 nM on resting GPIIb/IIIa and 56 nM at active GPIIb/IIIa (ADP final concentration 2.5 μM). In addition, the R/A ratio on active GPIIb/IIIa is 7.8.

With `COc1ccc(CCC(=O)N[C@H](CNC(=O)[C@@H]2CCCN(C(=O)CCC3CCNCC3)C2)C(=O)O)cc1` [Ex. 7], the values for the IC50 at resting GPIIb/IIIa and on active GPIIb/IIIa (ADP final concentration 2.5 μM) were 533 nM and 35 nM, respectively. Also, the R/A ratio on active GPIIb/IIIa is given as 15.

Take `CCC(=O)N[C@@H](CNC(=O)[C@@H]1CCCN(C(=O)CCC2CCNCC2)C1)C(=O)O` [Ex. 8]: the IC50 on resting GPIIb/IIIa was found to be 1520 nM; on active GPIIb/IIIa (ADP final concentration 2.5 μM), 49 nM.

With `CC(=O)OCC(=O)N[C@H](CNC(=O)[C@@H]1CCCN(C(=O)CCC2CCNCC2)C1)C(=O)O` [Ex. 9], the half-maximal inhibitory concentration (IC50) on resting GPIIb/IIIa came to 727 nM; on active GPIIb/IIIa (ADP final concentration 2.5 μM), 55 nM. Moreover, the R/A ratio on active GPIIb/IIIa is recorded as 13.

As to `N[C@@H](CNC(=O)[C@@H]1CCCN(C(=O)CCC2CCNCC2)C1)C(=O)O` [Ex. 10], the IC50 amounted to 2510 nM on resting GPIIb/IIIa and 272 nM on active GPIIb/IIIa (ADP final concentration 2.5 μM). For the same compound, on active GPIIb/IIIa, the R/A ratio is reported as 9.2.

As to `COc1ccc(CCC(=O)N[C@@H](CNC(=O)[C@@H]2CCCN(C(=O)CCC3CCNCC3)C2)C(=O)O)cc1` [Ex. 11], the IC50 at resting GPIIb/IIIa is 479 nM; on active GPIIb/IIIa (ADP final concentration 2.5 μM), 88 nM. Besides, the R/A ratio at active GPIIb/IIIa is reported as 6.5.

On to `CC(=O)N[C@@H](CNC(=O)[C@H]1CCCN(C(=O)CCC2CCNCC2)C1)C(=O)O` [Ex. 12], for which the IC50 on resting GPIIb/IIIa amounted to 5160 nM; at active GPIIb/IIIa (ADP final concentration 2.5 μM), 791 nM. The R/A ratio on active GPIIb/IIIa worked out at 6.5.

Take `COc1cc(C(=O)CN(C)C(=O)/C=C/C2CCNCC2)ccc1OCC(=O)O` [Ex. 14]: the concentration for half-maximal inhibition (IC50) at resting GPIIb/IIIa came out at 4050 nM; at active GPIIb/IIIa (ADP final concentration 2.5 μM) it was 291 nM. For the same compound, the R/A ratio at active GPIIb/IIIa is 14.

`CN(CC(=O)c1ccc(OCC(=O)O)c(OCCF)c1)C(=O)/C=C/C1CCNCC1` [Ex. 15]: the IC50 is 6210 nM at resting GPIIb/IIIa and 320 nM at active GPIIb/IIIa (ADP final concentration 2.5 μM). Further, the R/A ratio at active GPIIb/IIIa was determined as 19.

For the compound `CCCCCCC(=O)N[C@H](CNC(=O)[C@@H]1CCCN(C(=O)CCC2CCNCC2)C1)C(=O)O` [Ex. 16], the half-maximal inhibitory concentration (IC50) at resting GPIIb/IIIa amounted to 198 nM; on active GPIIb/IIIa (ADP final concentration 2.5 μM) it was 32.4 nM. Further, on active GPIIb/IIIa, the R/A ratio came out at 6.1.

For the compound `COC(=O)COc1ccc(C(=O)N[C@H](CNC(=O)[C@@H]2CCCN(C(=O)CCC3CCNCC3)C2)C(=O)O)cc1` [Ex. 17], the IC50 on resting GPIIb/IIIa was 486 nM; at active GPIIb/IIIa (ADP final concentration 2.5 μM), 29.9 nM. The R/A ratio on active GPIIb/IIIa turned out to be 16.

Take `CC(C)CCCOc1ccc(C(=O)N[C@@H](CNC(=O)[C@H]2CCCN(C(=O)CCC3CCNCC3)C2)C(=O)O)cc1` [Ex. 18]: the results for the half-inhibitory concentration (IC50) on resting GPIIb/IIIa and on active GPIIb/IIIa (ADP final concentration 2.5 μM) were 48 nM and 6.1 nM, respectively. For the same compound, the R/A ratio on active GPIIb/IIIa amounted to 7.9.

In the case of `CC(C)CCC(=O)Nc1cccc(C(=O)N[C@@H](CNC(=O)[C@H]2CCCN(C(=O)CCC3CCNCC3)C2)C(=O)O)c1` [Ex. 19], the concentration for half-maximal inhibition (IC50) at resting GPIIb/IIIa amounted to 151 nM; at active GPIIb/IIIa (ADP final concentration 2.5 μM), 9.1 nM. For the same compound, at active GPIIb/IIIa, the R/A ratio worked out at 17.

For the compound `CC(C)CC(=O)Nc1cccc(C(=O)N[C@@H](CNC(=O)[C@H]2CCCN(C(=O)CCC3CCNCC3)C2)C(=O)O)c1` [Ex. 20], the 50% inhibitory concentration (IC50) on resting GPIIb/IIIa turned out to be 239 nM; at active GPIIb/IIIa (ADP final concentration 2.5 μM) it was 30 nM. For the same compound, the R/A ratio on active GPIIb/IIIa came to 8.0.

Take `[11CH3]N(CC(=O)c1ccc(OCC(=O)O)c(OCC(=O)O)c1)C(=O)/C=C/C1CCNCC1` [Production Ex. 21, 2,2′-[[4-({[^11C]methyl[(2E)-3-(4-piperidinyl)-2-propenoyl]amino}acetyl)-1,2-phenylene]bis(oxy)]diacetic acid trifluoroacetate]: in the data set with monkey thrombus model, the Thrombus/Blood ratio turned out to be 24.2 ± 17.9 and the Thrombus/Muscle ratio worked out at 94.8 ± 65.0. Besides, in the data set with monkey thrombus model (setting [1]), the Thrombus/Blood ratio result is reported as “approximately 24” and the Thrombus/Muscle ratio result is “approximately 95”. For the same compound, the “Blood accumulation of radioactivity” value in the data set on monkey thrombus model (intravenous 740 MBq, arterial blood) was found to be 0.084 ± 0.012 % ID/g/kg. Further, the “Muscle accumulation of radioactivity” value with monkey thrombus model (intravenous 740 MBq, thigh muscle) is recorded as 0.021 ± 0.005 % ID/g/kg. In addition, in the data set with monkey thrombus model (intravenous 740 MBq, thrombus), the “Thrombus accumulation of radioactivity” value is reported as 1.902 ± 1.132 % ID/g/kg.

Take `N=C(N)c1ccc(C(=O)N[C@@H](Cc2ccc(O)cc2)C(=O)N2CCC(OCC(=O)O)CC2)cc1` [Reference Ex. 3, Lamifiban, reference compound]: the results for the IC50 at resting GPIIb/IIIa and on active GPIIb/IIIa (ADP final concentration 2.5 μM) were 80 nM and 45 nM, respectively. Besides, the R/A ratio on active GPIIb/IIIa is reported as 1.8.

For `CC(C)[C@H](NC(=O)[C@H](CC(=O)O)NC(=O)CCCOc1ccc(C(=N)N)cc1)C(=O)O` [Reference Ex. 4, FK633, reference compound], the IC50 amounted to 1320 nM at resting GPIIb/IIIa and 103 nM on active GPIIb/IIIa (ADP final concentration 2.5 μM). For the same compound, the R/A ratio at active GPIIb/IIIa came out at 13.

In the case of “Echistatin [compound 1, reference compound]”, the “R Suppression of fibrinogen adhesion IC50” value at resting GPIIb/IIIa (PGE1-treated platelets, human fibrinogen coated plates, value printed in μg/ml) was 0.14 µg/mL. Besides, at active GPIIb/IIIa, the R/A ratio is on record as 0.38. In addition, the “A Inhibition of platelet aggregation IC50” value at active GPIIb/IIIa (human PRP, ADP final concentration 2.5 μM, value printed in μg/ml) came out at 0.36 µg/mL.
